# In US12448399B2, “Cereblon-based KRAS degrading PROTACs and uses related thereto” (Arvinas Operations, Inc., priority 2023, dated 2025):
# Target: T1, KRas-G12D (Homo sapiens, UniProt P01116, G12D)
# T1 construct: insert the HiBiT tag onto the N-terminus of one or more of the endogenous KRas alleles; host or cells: AsPC-1 HiBiT-KRasG12D knock-in clone (one tagged allele, two untagged KRasG12D alleles)
# Test: HiBiT Degradation Assay (G12D), AsPC-1 HiBiT-KRasG12D cells, 24 hr
# Assay type: cell-based
# Details: for Dmax: ASPC1, AsPC-1 cells, maximum degradation observed; for DC50: AsPC-1 cells
# Summary of the method: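 Degradation was read after 24 hr compound exposure (0.5% DMSO, 37° C) by Nano-Glo HiBiT lytic luminescence in AsPC-1 cells carrying a HiBiT tag on one of three KRasG12D alleles. Signal relative to DMSO gave DC50 and Dmax by 4-parameter fit; alamar blue fluorescence monitored cytotoxicity.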
# T1 sequence (P01116 1-188 isoform P01116-2 G12D): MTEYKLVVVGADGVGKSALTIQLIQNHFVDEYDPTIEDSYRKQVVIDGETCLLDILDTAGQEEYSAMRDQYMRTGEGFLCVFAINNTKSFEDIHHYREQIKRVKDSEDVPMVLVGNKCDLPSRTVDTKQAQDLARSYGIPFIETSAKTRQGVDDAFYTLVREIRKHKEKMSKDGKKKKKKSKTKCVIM
Compound,Dmax [%],DC50 [µM]
"C#Cc1c(F)ccc2cc(O)cc(-c3ncc4c(N5CC6CCC(C5)N6)nc(OCCN5CCC(F)(CC6CCN(CC7CCN(c8ccc9c(c8)n(C)c(=O)n9C8CCC(=O)NC8=O)CC7)CC6)CC5)nc4c3F)c12 (centres unmarked) [Compound 198, 3-[5-[4-[[4-[[1-[2-[4-(3,8-diazabicyclo[3.2.1]octan-3-yl)-7-(8-ethynyl-7-fluoro-3-hydroxy-1-naphthyl)-8-fluoro-pyrido[4,3-d]pyrimidin-2-yl]oxyethyl]-4-fluoro-4-piperidyl]methyl]-1-piperidyl]methyl]-1-piperidyl]-3-methyl-2-oxo-benzimidazol-1-yl]piperidine-2,6-dione]",> 70,< 5.1
"C#Cc1c(F)ccc2cc(O)cc(-c3ncc4c(N5CC6CCC(C5)N6)nc(OCCN5CCC(CC6CCN(CC7CCN(c8cc(F)c9c(c8F)n(C)c(=O)n9C8CCC(=O)NC8=O)CC7)CC6)CC5)nc4c3F)c12 (centres unmarked) [Compound 199, 3-{5-[4-({4-[(1-{2-[(4-{3,8-diazabicyclo[3.2.1]octan-3-yl}-7-(8-ethynyl-7-fluoro-3-hydroxynaphthalen-1-yl)-8-fluoropyrido[4,3-d]pyrimidin-2-yl)oxy]ethyl}piperidin-4-yl)methyl]piperidin-1-yl}methyl)piperidin-1-yl]-4,7-difluoro-3-methyl-2-oxo-2,3-dihydro-1H-1,3-benzodiazol-1-yl}piperidine-2,6-dione]",> 70,< 5.1
"C#Cc1c(F)ccc2cc(O)cc(-c3ncc4c(N5CC6CCC(C5)N6)nc(OCCN5CCC(F)(CN6CCN(CC7CCN(c8ccc9c(c8)n(C)c(=O)n9C8CCC(=O)NC8=O)CC7)CC6)CC5)nc4c3F)c12 (centres unmarked) [Compound 200, 3-[5-[4-[[4-[[1-[2-[4-(3,8-diazabicyclo[3.2.1]octan-3-yl)-7-(8-ethynyl-7-fluoro-3-hydroxy-1-naphthyl)-8-fluoro-pyrido[4,3-d]pyrimidin-2-yl]oxyethyl]-4-fluoro-4-piperidyl]methyl]piperazin-1-yl]methyl]-1-piperidyl]-3-methyl-2-oxo-benzimidazol-1-yl]piperidine-2,6-dione]",> 70,< 5.1
"C#Cc1c(F)ccc2cc(O)cc(-c3ncc4c(N5CC6CCC(C5)N6)nc(OC[C@@H]5C[C@@H](OC6CCN(CC7CCN(c8cc(F)c9c(c8F)n(C)c(=O)n9C8CCC(=O)NC8=O)CC7)CC6)CN5C)nc4c3F)c12 (stereo partly drawn) [Compound 201, 3-(5-{4-[(4-{[(3R,5S)-5-{[(4-{3,8-diazabicyclo[3.2.1]octan-3-yl}-7-(8-ethynyl-7-fluoro-3-hydroxynaphthalen-1-yl)-8-fluoropyrido[4,3-d]pyrimidin-2-yl)oxy]methyl}-1-methylpyrrolidin-3-yl]oxy}piperidin-1-yl)methyl]piperidin-1-yl}-4,7-difluoro-3-methyl-2-oxo-2,3-dihydro-1H-1,3-benzodiazol-1-yl)piperidine-2,6-dione]",> 70,< 5.1
"C#Cc1c(F)ccc2cc(O)cc(-c3ncc4c(N5CC6CCC(C5)N6)nc(OCCN5CCC6(CC5)CCN(CC5CCN(c7ccc8c(c7)n(C(C)C)c(=O)n8C7CCC(=O)NC7=O)CC5)CC6)nc4c3F)c12 (centres unmarked) [Compound 202, 3-(5-{4-[(9-{2-[(4-{3,8-diazabicyclo[3.2.1]octan-3-yl}-7-(8-ethynyl-7-fluoro-3-hydroxynaphthalen-1-yl)-8-fluoropyrido[4,3-d]pyrimidin-2-yl)oxy]ethyl}-3,9-diazaspiro[5.5]undecan-3-yl)methyl]piperidin-1-yl}-2-oxo-3-(propan-2-yl)-2,3-dihydro-1H-1,3-benzodiazol-1-yl)piperidine-2,6-dione]",> 70,< 5.1
"C#Cc1c(F)ccc2cc(O)cc(-c3ncc4c(N5CC6CCC(C5)N6)nc(OCCN5CCC6(CC5)CCN(CC5CCN(c7ccc8c(c7F)n(C(C)C)c(=O)n8C7CCC(=O)NC7=O)CC5)CC6)nc4c3F)c12 (centres unmarked) [Compound 203, 3-[5-[4-[[9-[2-[4-(3,8-diazabicyclo[3.2.1]octan-3-yl)-7-(8-ethynyl-7-fluoro-3-hydroxy-1-naphthyl)-8-fluoro-pyrido[4,3-d]pyrimidin-2-yl]oxyethyl]-3,9-diazaspiro[5.5]undecan-3-yl]methyl]-1-piperidyl]-4-fluoro-3-isopropyl-2-oxo-benzimidazol-1-yl]piperidine-2,6-dione]",> 70,< 5.1
"C#Cc1c(F)ccc2cc(O)cc(-c3ncc4c(N5CC6CCC(C5)N6)nc(OC[C@]56CCCN5[C@H](CN5CCN(CC7CCN(c8ccc9c(c8)n(C)c(=O)n9C8CCC(=O)NC8=O)CC7)CC5)CC6)nc4c3F)c12 (stereo partly drawn) [Compound 204, 3-[5-[4-[[4-[[(3S,8R)-8-[[4-(3,8-diazabicyclo[3.2.1]octan-3-yl)-7-(8-ethynyl-7-fluoro-3-hydroxy-1-naphthyl)-8-fluoro-pyrido[4,3-d]pyrimidin-2-yl]oxymethyl]-1,2,3,5,6,7-hexahydropyrrolizin-3-yl]methyl]piperazin-1-yl]methyl]-1-piperidyl]-3-methyl-2-oxo-benzimidazol-1-yl]piperidine-2,6-dione]",> 70,< 5.1
"CCc1c(F)ccc2cc(O)cc(-c3ncc4c(N5CC6CCC(C5)N6)nc(OCCN5CCC(CC6CCN(CC7CCN(c8ccc9c(c8)n(C)c(=O)n9C8CCC(=O)NC8=O)CC7)CC6)CC5)nc4c3F)c12 (centres unmarked) [Compound 205, 3-{5-[4-({4-[(1-{2-[(4-{3,8-diazabicyclo[3.2.1]octan-3-yl}-7-(8-ethyl-7-fluoro-3-hydroxynaphthalen-1-yl)-8-fluoropyrido[4,3-d]pyrimidin-2-yl)oxy]ethyl}piperidin-4-yl)methyl]piperidin-1-yl}methyl)piperidin-1-yl]-3-methyl-2-oxo-2,3-dihydro-1H-1,3-benzodiazol-1-yl}piperidine-2,6-dione]",> 70,< 5.1
"C#Cc1c(F)ccc2cc(O)cc(-c3ncc4c(N5CC6CCC(C5)N6)nc(OCCN5CCC(CC6CCN(CC7CCN(c8ccc9c(c8F)n(C)c(=O)n9C8CCC(=O)NC8=O)CC7)CC6)CC5)nc4c3F)c12 (centres unmarked) [Compound 206, 3-{5-[4-({4-[(1-{2-[(4-{3,8-diazabicyclo[3.2.1]octan-3-yl}-7-(8-ethynyl-7-fluoro-3-hydroxynaphthalen-1-yl)-8-fluoropyrido[4,3-d]pyrimidin-2-yl)oxy]ethyl}piperidin-4-yl)methyl]piperidin-1-yl}methyl)piperidin-1-yl]-4-fluoro-3-methyl-2-oxo-2,3-dihydro-1H-1,3-benzodiazol-1-yl}piperidine-2,6-dione]",> 70,< 5.1
"CCc1c(F)ccc2cc(O)cc(-c3ncc4c(N5CC6CCC(C5)N6)nc(OC[C@@H]5C[C@@H](OC6CCN(CC7CCN(c8ccc9c(c8)n(C)c(=O)n9C8CCC(=O)NC8=O)CC7)CC6)CN5C)nc4c3F)c12 (stereo partly drawn) [Compound 207, 3-(5-{4-[(4-{[(3R,5S)-5-{[(4-{3,8-diazabicyclo[3.2.1]octan-3-yl}-7-(8-ethyl-7-fluoro-3-hydroxynaphthalen-1-yl)-8-fluoropyrido[4,3-d]pyrimidin-2-yl)oxy]methyl}-1-methylpyrrolidin-3-yl]oxy}piperidin-1-yl)methyl]piperidin-1-yl}-3-methyl-2-oxo-2,3-dihydro-1H-1,3-benzodiazol-1-yl)piperidine-2,6-dione]",> 70,< 5.1
"C#Cc1c(F)ccc2cc(O)cc(-c3ncc4c(N5CC6CCC(C5)N6)nc(OC[C@]56CCCN5[C@H](CN5CCN(CC7CCN(c8ccc9c(c8)n(C(C)C)c(=O)n9C8CCC(=O)NC8=O)CC7)CC5)CC6)nc4c3F)c12 (stereo partly drawn) [Compound 208, 3-[5-[4-[[4-[[(3S,8R)-8-[[4-(3,8-diazabicyclo[3.2.1]octan-3-yl)-7-(8-ethynyl-7-fluoro-3-hydroxy-1-naphthyl)-8-fluoro-pyrido[4,3-d]pyrimidin-2-yl]oxymethyl]-1,2,3,5,6,7-hexahydropyrrolizin-3-yl]methyl]piperazin-1-yl]methyl]-1-piperidyl]-3-isopropyl-2-oxo-benzimidazol-1-yl]piperidine-2,6-dione]",> 70,< 5.1
"CCc1c(F)ccc2cc(O)cc(-c3ncc4c(N5CC6CCC(C5)N6)nc(OC[C@@H]5C[C@@H](OC6CCN(CC7CCN(c8ccc9c(c8)n(C(C)C)c(=O)n9C8CCC(=O)NC8=O)CC7)CC6)CN5C)nc4c3F)c12 (stereo partly drawn) [Compound 209, 3-(5-{4-[(4-{[(3R,5S)-5-{[(4-{3,8-diazabicyclo[3.2.1]octan-3-yl}-7-(8-ethyl-7-fluoro-3-hydroxynaphthalen-1-yl)-8-fluoropyrido[4,3-d]pyrimidin-2-yl)oxy]methyl}-1-methylpyrrolidin-3-yl]oxy}piperidin-1-yl)methyl]piperidin-1-yl}-2-oxo-3-(propan-2-yl)-2,3-dihydro-1H-1,3-benzodiazol-1-yl)piperidine-2,6-dione]",> 70,< 5.1
"C#Cc1c(F)ccc2cc(O)cc(-c3ncc4c(N5CC6CCC(C5)N6)nc(OCC5(CN6CCC(CC7CCN(c8ccc9c(c8)n(C)c(=O)n9C8CCC(=O)NC8=O)CC7)CC6)CC5)nc4c3F)c12 (centres unmarked) [Compound 210, 3-{5-[4-({1-[(1-{[(4-{3,8-diazabicyclo[3.2.1]octan-3-yl}-7-(8-ethynyl-7-fluoro-3-hydroxynaphthalen-1-yl)-8-fluoropyrido[4,3-d]pyrimidin-2-yl)oxy]methyl}cyclopropyl)methyl]piperidin-4-yl}methyl)piperidin-1-yl]-3-methyl-2-oxo-2,3-dihydro-1H-1,3-benzodiazol-1-yl}piperidine-2,6-dione]",> 70,< 5.1
